The species named for one assay is Mus musculus. The assay is described as follows: Analgesic activity in mice by mouse phenylquinone writhing assay relative to aspirin. The assay is classed as functional. A general note: Writhing tests count abdominal constrictions after an irritant is injected.
For the next assay, the species on record is Rattus norvegicus. The assay is described as follows: Inhibition of carrageenan-induced inflammation of rat paw relative to phenylbutazone. Type of assay: functional.

The structures appear in SMILES notation. Where only a bound is given, the exact number is not on record here.

Activity data for 17 molecules are collected here from ChEMBL document CHEMBL1123366, “Antiinflammatory and aldose reductase inhibitory activity of some tricyclic arylacetic acids” (J Med Chem, 1986).

Consider `CC(C(=O)O)c1cccc(C(=O)c2ccccc2)c1` (centres undefined) [KETOPROFEN], for which the Activity in the assay listed under Mus musculus is 60; in the assay filed under Rattus norvegicus, 9.
The corresponding values for `O=C(O)Cc1ccc2c(c1)OCc1ccccc1C2=O` [OXEPINAC] are 4 and around 15.
The corresponding values for `O=C(O)Cc1ccc2c(c1)CCc1cc(O)ccc1C2=O` are around 0.6 and around 0.4.
The corresponding values for `O=C(O)Cc1cc(O)c2c(c1)CCc1ccccc1C2=O` are 4 and around 20.
`O=C(O)Cc1ccc2c(c1)CCc1ccccc1C2=O`: the Activity in the assay listed under Mus musculus turned out to be 1.5; in the assay filed under Rattus norvegicus, 7.
The corresponding values for `CC(C(=O)O)c1cc(O)c2c(c1)CCc1ccccc1C2=O` (centres undefined) are 4 and around 60.
The corresponding values for `O=C(O)Cc1ccc2c(c1)CCc1cccc(O)c1C2=O` are “>=0.4” and below 0.2.
The corresponding values for `O=C(O)Cc1ccc2c(=O)c3ccccc3ccc2c1` are 2 and 6.
As for `O=C(O)c1ccccc1Nc1cccc(C(F)(F)F)c1` [FLUFENAMIC ACID], the Activity is listed as below 0.4 in the assay listed under Mus musculus and around 6 in the assay filed under Rattus norvegicus.
With `CC(C(=O)O)c1cc(O)c2c(=O)c3ccccc3ccc2c1` (centres undefined), the Activity is around 6 in the assay listed under Mus musculus and around 30 in the assay listed under Rattus norvegicus.
Turning to `CC(C(=O)O)c1ccc2c(=O)c3ccccc3ccc2c1` (centres undefined), the Activity in the assay listed under Mus musculus is reported as 20; in the assay listed under Rattus norvegicus it was 68.
The corresponding values for `O=C(O)Cc1ccc2c(c1)SCc1ccccc1C2=O` [TIOPINAC] are 14 and 40.
Regarding `O=C(O)Cc1cc(O)c2c(=O)c3ccccc3ccc2c1`, the Activity was around 1 in the assay filed under Mus musculus and 5 in the assay listed under Rattus norvegicus.
The corresponding values for `COc1ccc2c(c1)c(CC(=O)O)c(C)n2C(=O)c1ccc(Cl)cc1` [INDOMETHACIN] are 60 and 16.
The corresponding values for `O=C(O)Cc1ccc2c(c1)CCc1ccc(O)cc1C2=O` are around 0.2 and below 0.2.
The corresponding values for `O=C(O)Cc1ccc2c(c1O)CCc1ccccc1C2=O` are around 8 and 15.
Take `O=C1Cc2ccc3c(c2O1)CCc1ccccc1C3=O`: the Activity in the assay listed under Mus musculus is on record as around 1; in the assay filed under Rattus norvegicus, 3.
